Consider 102 compounds from the CATMoS acute toxicity set (Mansouri et al. 2021).

The data set in a line: GHS categories as the set defines them, by LD50: 1 up to 5, 2 up to 50, 3 up to 300, 4 up to 2000, 5 above 2000 mg/kg. Particulars: rat; in vivo; po.

Each structure is given as a SMILES string. Where a SMILES comes first, the peptide text is derived from it.

For the compound `O=C(Nc1ccc(Cl)cc1)c1cc2ccccc2cc1O`, the GHS category is listed as 5.

`C[C@@H]1C[C@H]2[C@@H]3CCC4=CC(=O)C=C[C@]4(C)[C@@]3(F)[C@@H](O)C[C@]2(C)[C@@]1(O)C(=O)COS(=O)(=O)O` showed a GHS category of 5.

For `CCOC(=O)C1CN(C)C2CCCC(C)N2C1=O` (configuration not stated), the GHS category turned out to be 5.

On to `COc1ccccc1C1NC(=O)CCS1` (configuration not stated), for which the GHS category came to 5.

For the compound `CCN(C(=O)CCCSc1nnnn1C)C1CCCCC1`, the GHS category worked out at 4.

Take `C=C[Si](C)(C)O[Si](O[Si](C)(C)C=C)(O[Si](C)(C)C=C)O[Si](C)(C)C=C`: the GHS category was 5.

`C=CCc1cc(C(C)(C)c2ccc(O)c(CC=C)c2)ccc1O` had a GHS category of 5.

With `O=C(Nc1ccc(Cl)cc1C(O)c1ccccc1)c1ccncc1` (configuration not stated), the GHS category worked out at 5.

`CC(C)(C)[C@H](NC(=O)OCc1ccccc1)C(=O)O` yielded a GHS category of 4.

Take `CN1C(C(=O)Nc2ccccn2)=C(OP2(=O)OCCCO2)c2sc(Cl)cc2S1(=O)=O`: the GHS category stood at 2.

Compound `O=C1NC(=O)C(c2ccccc2)(c2ccc(O)cc2)N1` (configuration not stated) displayed a GHS category of 5.

`COc1ccc2c(c1)CCN(c1ccccc1)C2c1cccc(Br)c1` (configuration not stated) showed a GHS category of 4.

With `COCCCNc1nc(NC(C)C)nc(SC)n1`, the GHS category is on record as 5.

Regarding `CC1OC(Cn2cncn2)(c2cc3ccccc3o2)OC1C` (configuration not stated), the GHS category is 4.

`Cc1cc(C)cc(N2C(=O)c3ccc4c5ccc6c7c(ccc(c8ccc(c3c48)C2=O)c75)C(=O)N(c2cc(C)cc(C)c2)C6=O)c1`: the GHS category is on record as 5.

As to `C[C@]12C[C@H]3O[C@H]3CC1CCC1C2CC[C@]2(C)C(=O)[C@@H](N3CCCC3)CC12` (some centres not stated), the GHS category is recorded as 5.

In the case of `CCN(CC)CCc1nc(-c2cccc(O)c2)no1`, the GHS category is listed as 5.

Regarding `C[Si](C)(C)C`, the GHS category came to 5.

In turn, `Cc1ccc2nc(-c3ccc(N)cc3)sc2c1S(=O)(=O)O` yielded a GHS category of 5.

As to `CCCCCCCC/C=C\CCCCCCCC(=O)OCC(COC(=O)CCCCCCC/C=C\CCCCCCCC)OC(=O)CCCCCCC/C=C\CCCCCCCC`, the GHS category worked out at 5.

Compound `CNC(=O)C(C#N)=c1[nH]c(=C2C(=O)NC(=O)NC2=O)c2ccccc12` had a GHS category of 5.

For `CCC(C)CCCC(C)CCCC(C)C` (configuration not stated), the GHS category is given as 5.

For `O=C(NC(=O)C(Cl)(Cl)Cl)NS(=O)(=O)c1ccccc1`, the GHS category was 5.

`Nc1cc(S(=O)(=O)O)c2cc(S(=O)(=O)O)cc(S(=O)(=O)O)c2c1` gave a GHS category of 5.

Compound `OC1CCC(N2CCCCC2)CC1` (configuration not stated) yielded a GHS category of 5.

For the compound `COc1cc(C(=O)OCCCN2CCCN(CCCOC(=O)c3cc(OC)c(OC)c(OC)c3)CC2)cc(OC)c1OC`, the GHS category was found to be 5.

`O=C(COCCOCCOCC(=O)Nc1c(I)cc(I)c(C(=O)O)c1I)Nc1c(I)cc(I)c(C(=O)O)c1I`: the GHS category amounted to 5.

Turning to `Cc1cc(C)c(Nc2ccc(Nc3c(C)cc(C)cc3C)c3c2C(=O)c2ccccc2C3=O)c(C)c1`, the GHS category is given as 5.

`Cn1ccnc1Cc1nn[nH]n1`: the GHS category is 5.

`CCCCCCCCCCCCCCCCCC` came in with a GHS category of 5.

`CCCCCCCCOc1ccccc1C(=O)Nc1ccc(C(=O)OCC[N+](C)(CC)CC)cc1` registered a GHS category of 4.

`CSC` yielded a GHS category of 4.

In turn, `CCOCOC1CCCCCCCCCCC1` came in with a GHS category of 5.

As to `Cc1cccc2ncc(C(=O)NC(C)C)c(=O)n12`, the GHS category is given as 3.

For the compound `CC(=O)CSc1nnnn1C`, the GHS category worked out at 4.

Consider `N#CCN(CC#N)CCN(CC#N)CC#N`, for which the GHS category turned out to be 5.

In the case of `Cc1ccccc1OC(=O)c1cc(Cl)ccc1OC(N)=O`, the GHS category is given as 5.

Turning to `CCCCC1OC(C)CC(C)(C)O1` (configuration not stated), the GHS category was determined as 5.

Compound `CCC(=O)O[C@@H]1C=C2CCC3C(CCC4(C)C3CC[C@@H]4OC(=O)CC)C2CC1` (some centres not stated) showed a GHS category of 5.

`NCC(O)CCl` (configuration not stated): the GHS category is 4.

`CC(C)CCCC1CCC(C)(C(=O)O)CC1` (configuration not stated) had a GHS category of 5.

As to `CC(=O)OC1C=CC(C)=CCC(O)C=CC(C)=CC(NC(=O)C(C)=O)C2(C)C(=O)OC(C1)C(C)C2=O` (configuration not stated), the GHS category was found to be 5.

As for `C=CC(C)(CCC=C(C)C)OC` (configuration not stated), the GHS category is 5.

For `COc1ccc(OC)c(C=O)c1`, the GHS category stood at 5.

In turn, `CC(=O)CC(=O)Nc1cc(Cl)c(NC(=O)CC(C)=O)cc1C` returned a GHS category of 5.

As for `CC(C)Oc1ccc2c(c1)N(CCC1CCCCN1C)c1ccccc1S2` (configuration not stated), the GHS category is reported as 5.

In the case of `CCC(COC(=O)c1ccccc1C(=O)OCC(CC)CC(C)C)CC(C)C` (configuration not stated), the GHS category was 5.

With `CCOC(=O)Oc1ccc(C2(c3ccc(OC(=O)OCC)cc3)C(=O)Nc3c(C)cccc32)cc1`, the GHS category is 5.

For the compound `CCCCCCCCCCC=O`, the GHS category is 5.

On to `CN1C(=O)COc2cc(C(=O)c3ccc(Cl)cc3)ccc21`, for which the GHS category is on record as 5.

As to `Cc1ccc(OC(=O)Cc2ccccc2)cc1`, the GHS category is 5.

On to `CCO[Si](CCCNC=O)(OCC)OCC`, for which the GHS category is given as 5.

In turn, `CCC1(CO)COCOC1` gave a GHS category of 5.

The compound `CC(C)(O)CCC(C)(C)O` registered a GHS category of 5.

As to `O=C(O)Cc1nc(-c2ccc(F)cc2)oc1-c1ccsc1`, the GHS category was determined as 5.

`CCCCCCCCCCCCCCCC(=O)OC` gave a GHS category of 5.

In turn, `O=C=NS(=O)(=O)c1ccccc1C(F)(F)F` gave a GHS category of 4.

As to `CCOC(=O)C1=C(C)NC(C)=C(C(=O)OCCN2C(=O)c3ccccc3S2(=O)=O)C1C` (configuration not stated), the GHS category is 5.

In turn, `COc1ccc2c(c1)CCN(c1ccccc1)C2c1ccccc1N` (configuration not stated) registered a GHS category of 4.

In turn, `Cc1ccc(C(=O)Nc2ccc(S(=O)(=O)O)cc2)cc1[N+](=O)[O-]` had a GHS category of 5.

As for `Cc1ccc(C(N)=O)c(O)c1`, the GHS category came to 5.

As for `CC(C)CCCCCCCOCCCNCCCN`, the GHS category worked out at 3.

In turn, `CCCCCCCCCCN(C)CCCCCCCCCC` showed a GHS category of 4.

`COP(=S)(OC)Oc1ccc(/N=N/c2ccc(Cl)cc2)cc1` came in with a GHS category of 4.

Consider `O=C(NCc1ncc(C(F)(F)F)cc1Cl)c1c(Cl)cccc1Cl`, for which the GHS category is recorded as 5.

On to `c1ccc2c(c1)CCc1ccccc1N2`, for which the GHS category turned out to be 5.

`C=CCCCCCCCCC(=O)OCC` gave a GHS category of 5.

As for `COc1cc(OC)nc(NC(=O)NS(=O)(=O)c2ncccc2C(=O)N(C)C)n1`, the GHS category is recorded as 5.

Regarding `CC(O)CCCCO` (configuration not stated), the GHS category is recorded as 5.

The compound `CCOCCOCCOC(=O)C1CCC(C(=O)OCCOCCOCC)CC1` (configuration not stated) had a GHS category of 5.

Compound `CO[C@@]1(NC(=O)C(C(=O)O)c2ccc(O)cc2)C(=O)N2C(C(=O)O)=C(CSc3nnnn3C)CO[C@@H]21` (some centres not stated) gave a GHS category of 5.

Compound `C=COCCOCCOCCOC=C` showed a GHS category of 5.

In turn, `O=C(c1ccc(Oc2ccccc2)cc1)c1ccc(C(=O)c2ccc(Oc3ccccc3)cc2)cc1` gave a GHS category of 5.

In turn, `Oc1cc(O)c2c(c1)O[C@H](c1ccc(O)c(O)c1)[C@@H](O)C2` displayed a GHS category of 5.

Compound `O=C(Nc1ccc(Cl)cc1)NS(=O)(=O)c1ccc2c(c1)CCC2` displayed a GHS category of 4.

On to `O=C(c1ccccc1)c1ccc2[nH]c(=O)oc2c1`, for which the GHS category is reported as 5.

`CCCc1nc2c(C)cc(-c3nc4ccccc4n3C)cc2n1Cc1ccc(-c2ccccc2C#N)cc1` yielded a GHS category of 5.

On to `CC(=O)OC1CCC2C3CCC4CC(=O)CCC4(C)C3CCC12C` (configuration not stated), for which the GHS category was determined as 5.

Compound `COC1(C)CCCCCCCCCCC1` registered a GHS category of 5.

Compound `COC(=O)NC(=S)Nc1ccc(OCc2ccccc2)cc1[N+](=O)[O-]` gave a GHS category of 5.

Turning to `CCCCCC(O)CC` (configuration not stated), the GHS category came to 5.

Take `CC(=O)Nc1ccc(S(=O)(=O)Cl)cc1`: the GHS category turned out to be 5.

Regarding `COCC1COC(Cn2cncn2)(c2cc3ccccc3o2)O1` (configuration not stated), the GHS category is 4.

Compound `C=C1[C@H]2CC[C@@H]3[C@H]2C(C)(C)CCC[C@]13C` showed a GHS category of 5.

Turning to `O=C(O)c1ccccc1C(=O)N1CCSC1`, the GHS category is given as 5.

In turn, `C[C@H]1COc2c(N3C[C@@H](N)C4(CCC4)C3)c(F)cc3c(=O)c(C(=O)O)cn1c23` gave a GHS category of 5.

The compound `CC(=O)S[C@H]1CC(=O)C=C2C[C@@H](SC(C)=O)[C@@H]3[C@H](CC[C@@]4(C)[C@H]3CC[C@]4(C)O)[C@]21C` showed a GHS category of 5.

With `CCCCN(CCCC)C(=S)SCSC(=S)N(CCCC)CCCC`, the GHS category worked out at 5.

Consider `Cc1cc2cc3c(C)cc(=O)oc3c(C)c2o1`, for which the GHS category amounted to 5.

In turn, `CC(C)C[C@H]1C(=O)N2CCC[C@H]2[C@]2(O)O[C@](NC(=O)[C@@H]3C=C4c5cccc6[nH]c(Br)c(c56)C[C@H]4N(C)C3)(C(C)C)C(=O)N12` displayed a GHS category of 5.

The compound `N#CC1(N)CC1` came in with a GHS category of 4.

As for `CCOCC1COC(Cn2cncn2)(c2cc3ccccc3o2)O1` (configuration not stated), the GHS category was found to be 4.

In the case of `COc1nc(Nc2ccccc2)nc(Nc2ccc(C=Cc3ccc(Nc4nc(Nc5ccccc5)nc(OC)n4)cc3S(=O)(=O)O)c(S(=O)(=O)O)c2)n1`, the GHS category amounted to 5.

Regarding `O=[N+]([O-])c1ccc(Nc2ccccc2)cc1`, the GHS category is recorded as 5.

As for `Cc1cc(C)c(S(=O)(=O)O)cc1N=Nc1cc(S(=O)(=O)O)c2ccccc2c1O`, the GHS category amounted to 5.

The compound `C#CCC(O[Si](CC)(CC)CC)[Si](CC)(CC)CC` (configuration not stated) came in with a GHS category of 5.

As to `COC(=O)c1cc(F)ccc1N`, the GHS category stood at 5.

Compound `CC1(C)O[C@@H]2C[C@H]3[C@@H]4CCC5=CC(=O)CC[C@]5(C)[C@@]4(F)[C@@H](O)C[C@]3(C)[C@]2(C(=O)CCl)O1` showed a GHS category of 5.

For `CC(O)CN(CC(C)O)C(=O)CCCCC(=O)N(CC(C)O)CC(C)O` (configuration not stated), the GHS category is given as 5.

The compound `NCC(=O)N[C@@H](CCC(N)=O)C(=O)O` (H-Gly-Gln-OH) yielded a GHS category of 5.

`CC(C)=CCC/C(C)=C/CC/C(C)=C/CCC(=O)OC/C=C(\C)CCC=C(C)C` came in with a GHS category of 5.

For `CN1CCN(C(=S)SSC(=S)N2CCN(C)CC2)CC1`, the GHS category is on record as 5.
